Assay results reported in US20230114728A1 (Venatorx Pharmaceuticals, Inc., priority 2019, published 2023).
≈ marks a conversion by molar mass, not a printed value.

Experiments:
Assay in all cases: Broth microdilution MIC in iron-depleted CAMHB (IDM)
Format in all cases: cell-based
A. baumannii ATCC 17978 = details: Acinetobacter baumannii, ATCC17978, read-out: Minimum Inhibitory Concentration, ATCC 17978
How it was run: (§1)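 MIC read by eye as the lowest concentration with no bacterial growth, following CLSI microdilution in iron-depleted cation-adjusted Mueller-Hinton broth at pH 7.3. Starting inoculum 2-8×10^5 CFU/mL; incubation 37° C, 16-20 h for Pseudomonas, 20-24 h for Acinetobacter.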

[1] = tested on: A. baumannii CDC-0033 producing NDM-1, and OXA-94; details: Acinetobacter baumannii, read-out: Minimum Inhibitory Concentration, CDC-0033
How it was run: as §1

[2] = tested on: A. baumannii CDC-0036 OXA-65, and OXA-24; details: Acinetobacter baumannii, read-out: Minimum Inhibitory Concentration, CDC-0036
How it was run: as §1

[3] = tested on: A. baumannii CDC-0083 producing NDM-1, PER-7, OXA-23, and OXA-69; details: Acinetobacter baumannii, read-out: Minimum Inhibitory Concentration, CDC-0083
How it was run: as §1

[4] = tested on: P. aeruginosa (ΔmexAB-oprM); details: Pseudomonas aeruginosa, read-out: Minimum Inhibitory Concentration, P. aeruginosa ΔmexAB-OprM
How it was run: as §1

P. aeruginosa ATCC 35151 = details: Pseudomonas aeruginosa, ATCC35151; iron-depleted MHB (IDM); hyper-permeable strain; read-out: Minimum Inhibitory Concentration, P. aeruginosa ATCC 35151
How it was run: as §1

[5] = tested on: P. aeruginosa CDC-0054 producing VIM-4, OXA-50, and PAO; details: Pseudomonas aeruginosa, read-out: Minimum Inhibitory Concentration, P. aeruginosa CDC-0054
How it was run: as §1

[6] = tested on: P. aeruginosa CDC-0090 producing KPC-5, OXA-50, and PAO; details: Pseudomonas aeruginosa, read-out: Minimum Inhibitory Concentration, P. aeruginosa CDC-0090
How it was run: as §1

[7] = tested on: P. aeruginosa CDC-0095 producing OXA-50, and PAO; details: Pseudomonas aeruginosa, read-out: Minimum Inhibitory Concentration, P. aeruginosa CDC-0095
How it was run: as §1

Row | Structure (SMILES) | MIC (A. baumannii ATCC 17978) [µg/mL] | MIC [1] [µg/mL] | MIC [2] [µg/mL] | MIC [3] [µg/mL] | MIC [4] [µg/mL] | MIC (P. aeruginosa ATCC 35151) [µg/mL] | MIC [5] [µg/mL] | MIC [6] [µg/mL] | MIC [7] [µg/mL]
1 | CS(=O)(=O)N1CCN(C(=O)N[C@@H](C(=O)N[C@H]2Cc3ccc(F)c(C(=O)O)c3OB2O)c2cc(F)c(O)c(O)c2Cl)C1=O (single isomer, unassigned) [Example 189] | 0.25 (≈ 0.395 µM) | 2 to 4 (≈ 3.16 to 6.32 µM) | 2 to 4 (≈ 3.16 to 6.32 µM) | 32 to 64 (≈ 50.6 to 101 µM) | 0.25 (≈ 0.395 µM) | 0.25 (≈ 0.395 µM) | 0.5 to 1 (≈ 0.79 to 1.58 µM) | 0.5 to 1 (≈ 0.79 to 1.58 µM) | 2 to 4 (≈ 3.16 to 6.32 µM)
2 | CCN1CCN(C(=O)N[C@@H](C(=O)N[C@H]2Cc3ccc(F)c(C(=O)O)c3OB2O)c2c(Cl)cc(O)c(O)c2F)C(=O)C1=O (single isomer, unassigned) [Example 207] | 0.5 to 1 (≈ 0.819 to 1.64 µM) | 32 to 64 (≈ 52.4 to 105 µM) | 2 to 4 (≈ 3.27 to 6.55 µM) | > 128 | 2 to 4 (≈ 3.27 to 6.55 µM) | 0.25 (≈ 0.409 µM) | 2 to 4 (≈ 3.27 to 6.55 µM) | 2 to 4 (≈ 3.27 to 6.55 µM) | 8 to 16 (≈ 13.1 to 26.2 µM)
3 | O=C(NCCCN1CCN(C(=O)NC(C(=O)N[C@H]2Cc3cccc(C(=O)O)c3OB2O)c2ncc(O)cc2F)C(=O)C1=O)c1ccc(O)c(O)c1Cl (stereo partly drawn) [Example 1, (3R)-3-(2-(4-(3-(2-chloro-3,4-dihydroxybenzamido)propyl)-2,3-dioxopiperazine-1-carboxamido)-2-(3-fluoro-5-hydroxypyridin-2-yl)acetamido)-2-hydroxy-3,4-dihydro-2H-benzo[e][1,2]oxaborinine-8-carboxylic acid] | – | – | – | – | 2 to 4 (≈ 2.69 to 5.38 µM) | 0.5 to 1 (≈ 0.673 to 1.35 µM) | – | – | –
4 | C[C@H]1CN(CCNC(=O)c2ccc(O)c(O)c2Cl)C(=O)C(=O)N1C(=O)NC(C(=O)N[C@H]1Cc2cccc(C(=O)O)c2OB1O)c1ncc(O)cc1F (stereo partly drawn) [Example 2, (3R)-3-(2-((S)-4-(2-(2-chloro-3,4-dihydroxybenzamido)ethyl)-6-methyl-2,3-dioxopiperazine-1-carboxamido)-2-(3-fluoro-5-hydroxypyridin-2-yl)acetamido)-2-hydroxy-3,4-dihydro-2H-benzo[e][1,2]oxaborinine-8-carboxylic acid] | 0.5 to 1 (≈ 0.673 to 1.35 µM) | 8 to 16 (≈ 10.8 to 21.5 µM) | 32 to 64 (≈ 43.1 to 86.2 µM) | 8 to 16 (≈ 10.8 to 21.5 µM) | 0.25 (≈ 0.337 µM) | 0.25 (≈ 0.337 µM) | 2 to 4 (≈ 2.69 to 5.38 µM) | 2 to 4 (≈ 2.69 to 5.38 µM) | 8 to 16 (≈ 10.8 to 21.5 µM)
5 | O=C(NCCCN1CCN(C(=O)NC(C(=O)N[C@H]2Cc3ccc(F)c(C(=O)O)c3OB2O)c2ncc(O)cc2F)C(=O)C1=O)c1ccc(O)c(O)c1Cl (stereo partly drawn) [Example 3, (3R)-3-(2-(4-(3-(2-chloro-3,4-dihydroxybenzamido)propyl)-2,3-dioxopiperazine-1-carboxamido)-2-(3-fluoro-5-hydroxypyridin-2-yl)acetamido)-7-fluoro-2-hydroxy-3,4-dihydro-2H-benzo[e][1,2]oxaborinine-8-carboxylic acid] | 8 to 16 (≈ 10.5 to 21 µM) | 32 to 64 (≈ 42.1 to 84.1 µM) | 32 to 64 (≈ 42.1 to 84.1 µM) | 32 to 64 (≈ 42.1 to 84.1 µM) | 0.5 to 1 (≈ 0.657 to 1.31 µM) | 0.25 (≈ 0.329 µM) | 2 to 4 (≈ 2.63 to 5.26 µM) | 8 to 16 (≈ 10.5 to 21 µM) | 8 to 16 (≈ 10.5 to 21 µM)
6 | Nc1nc(C(NC(=O)N2CCN(CCNC(=O)c3ccc(O)c(O)c3Cl)C(=O)C2=O)C(=O)N[C@H]2Cc3ccc(F)c(C(=O)O)c3OB2O)c(F)s1 (stereo partly drawn) [Example 4, (3R)-3-(2-(2-amino-5-fluorothiazol-4-yl)-2-(4-(2-(2-chloro-3,4-dihydroxybenzamido)ethyl)-2,3-dioxopiperazine-1-carboxamido)acetamido)-7-fluoro-2-hydroxy-3,4-dihydro-2H-benzo[e][1,2]oxaborinine-8-carboxylic acid] | 0.25 (≈ 0.333 µM) | 32 to 64 (≈ 42.6 to 85.1 µM) | 32 to 64 (≈ 42.6 to 85.1 µM) | 32 to 64 (≈ 42.6 to 85.1 µM) | 0.25 (≈ 0.333 µM) | 0.25 (≈ 0.333 µM) | 0.5 to 1 (≈ 0.665 to 1.33 µM) | 0.25 (≈ 0.333 µM) | 0.5 to 1 (≈ 0.665 to 1.33 µM)
7 | O=C(NCCN1CCN(C(=O)NC(C(=O)N[C@H]2Cc3ccc(F)c(C(=O)O)c3OB2O)c2ncc(O)cc2F)C(=O)C1=O)c1c(F)cc(O)c(O)c1Cl (stereo partly drawn) [Example 5, (3R)-3-(2-(4-(2-(2-chloro-6-fluoro-3,4-dihydroxybenzamido)ethyl)-2,3-dioxopiperazine-1-carboxamido)-2-(3-fluoro-5-hydroxypyridin-2-yl)acetamido)-7-fluoro-2-hydroxy-3,4-dihydro-2H-benzo[e][1,2]oxaborinine-8-carboxylic acid] | 0.25 (≈ 0.327 µM) | 2 to 4 (≈ 2.61 to 5.23 µM) | 32 to 64 (≈ 41.8 to 83.7 µM) | 32 to 64 (≈ 41.8 to 83.7 µM) | 0.25 (≈ 0.327 µM) | 0.25 (≈ 0.327 µM) | 0.25 (≈ 0.327 µM) | 0.25 (≈ 0.327 µM) | 0.5 to 1 (≈ 0.654 to 1.31 µM)
8 | Nc1nc(/C(=N/OC[C@H](NC(=O)c2ccc(O)c(O)c2Cl)C(=O)O)C(=O)N[C@H]2Cc3cccc(C(=O)O)c3OB2O)cs1 [Example 6, (R)-3-((Z)-2-(2-aminothiazol-4-yl)-2-(((S)-2-carboxy-2-(2-chloro-3,4-dihydroxybenzamido)ethoxy)imino)acetamido)-2-hydroxy-3,4-dihydro-2H-benzo[e][1,2]oxaborinine-8-carboxylic acid] | 8 to 16 (≈ 12.6 to 25.2 µM) | 32 to 64 (≈ 50.5 to 101 µM) | 32 to 64 (≈ 50.5 to 101 µM) | 32 to 64 (≈ 50.5 to 101 µM) | 0.5 to 1 (≈ 0.789 to 1.58 µM) | 0.25 (≈ 0.394 µM) | 0.5 to 1 (≈ 0.789 to 1.58 µM) | 0.5 to 1 (≈ 0.789 to 1.58 µM) | 2 to 4 (≈ 3.16 to 6.31 µM)
9 | NCCCN1CCN(C(=O)N[C@@H](C(=O)N[C@H]2Cc3cc(Cl)c(F)c(C(=O)O)c3OB2O)c2c(F)cc(O)c(O)c2Cl)C(=O)C1=O [Example 190, (R)-3-((R)-2-(4-(3-aminopropyl)-2,3-dioxopiperazine-1-carboxamido)-2-(2-chloro-6-fluoro-3,4-dihydroxyphenyl)acetamido)-6-chloro-7-fluoro-2-hydroxy-3,4-dihydro-2H-benzo[e][1,2]oxaborinine-8-carboxylic acid] | 8 to 16 (≈ 11.9 to 23.7 µM) | > 128 | > 128 | > 128 | 0.25 (≈ 0.371 µM) | 0.5 to 1 (≈ 0.742 to 1.48 µM) | 8 to 16 (≈ 11.9 to 23.7 µM) | 0.5 to 1 (≈ 0.742 to 1.48 µM) | 8 to 16 (≈ 11.9 to 23.7 µM)
10 | CCN1CCN(C(=O)N[C@@H](C(=O)N[C@H]2Cc3cc(Cl)c(F)c(C(=O)O)c3OB2O)c2c(F)cc(O)c(O)c2Cl)C(=O)C1=O [Example 191, (R)-6-chloro-3-((R)-2-(2-chloro-6-fluoro-3,4-dihydroxyphenyl)-2-(4-ethyl-2,3-dioxopiperazine-1-carboxamido)acetamido)-7-fluoro-2-hydroxy-3,4-dihydro-2H-benzo[e][1,2]oxaborinine-8-carboxylic acid] | 2 to 4 (≈ 3.1 to 6.2 µM) | > 128 | 32 to 64 (≈ 49.6 to 99.2 µM) | > 128 | 0.25 (≈ 0.387 µM) | 0.25 (≈ 0.387 µM) | 2 to 4 (≈ 3.1 to 6.2 µM) | 8 to 16 (≈ 12.4 to 24.8 µM) | 8 to 16 (≈ 12.4 to 24.8 µM)
11 | CS(=O)(=O)N1CCN(C(=O)NC(C(=O)N[C@H]2Cc3ccc(F)c(C(=O)O)c3OB2O)c2c(Cl)cc(O)c(O)c2F)C1=O (stereo partly drawn) [Example 208, (3R)-3-(2-(6-chloro-2-fluoro-3,4-dihydroxyphenyl)-2-(3-(methylsulfonyl)-2-oxoimidazolidine-1-carboxamido)acetamido)-7-fluoro-2-hydroxy-3,4-dihydro-2H-benzo[e][1,2]oxaborinine-8-carboxylic acid] | 0.5 to 1 (≈ 0.79 to 1.58 µM) | 32 to 64 (≈ 50.6 to 101 µM) | 8 to 16 (≈ 12.6 to 25.3 µM) | > 128 | 2 to 4 (≈ 3.16 to 6.32 µM) | 0.25 (≈ 0.395 µM) | 32 to 64 (≈ 50.6 to 101 µM) | 2 to 4 (≈ 3.16 to 6.32 µM) | 32 to 64 (≈ 50.6 to 101 µM)
12 | CCN1CCN(C(=O)N[C@H](C(=O)N[C@H]2Cc3ccc(F)c(C(=O)O)c3OB2O)c2ccc(O)c(O)c2)C(=O)C1=O [Example 210, (R)-3-((S)-2-(3,4-dihydroxyphenyl)-2-(4-ethyl-2,3-dioxopiperazine-1-carboxamido)acetamido)-7-fluoro-2-hydroxy-3,4-dihydro-2H-benzo[e][1,2]oxaborinine-8-carboxylic acid] | > 128 | > 128 | > 128 | > 128 | 8 to 16 (≈ 14.3 to 28.7 µM) | 2 to 4 (≈ 3.58 to 7.16 µM) | > 128 | > 128 | > 128
13 | NCCN1CCN(C(=O)N[C@@H](C(=O)N[C@H]2Cc3ccc(F)c(C(=O)O)c3OB2O)c2c(F)c(F)c(O)c(O)c2Cl)C(=O)C1=O [Example 226, (R)-3-((R)-2-(4-(2-aminoethyl)-2,3-dioxopiperazine-1-carboxamido)-2-(2-chloro-5,6-difluoro-3,4-dihydroxyphenyl)acetamido)-7-fluoro-2-hydroxy-3,4-dihydro-2H-benzo[e][1,2]oxaborinine-8-carboxylic acid] | 0.5 to 1 (≈ 0.777 to 1.55 µM) | 8 to 16 (≈ 12.4 to 24.9 µM) | 8 to 16 (≈ 12.4 to 24.9 µM) | 2 to 4 (≈ 3.11 to 6.21 µM) | 2 to 4 (≈ 3.11 to 6.21 µM) | 0.25 (≈ 0.388 µM) | 2 to 4 (≈ 3.11 to 6.21 µM) | – | 2 to 4 (≈ 3.11 to 6.21 µM)
